{"source": "ChEMBL document CHEMBL1156790", "about": "“Synthesis and structure-activity relationships of antitubercular 2-nitroimidazooxazines bearing heterocyclic side chains” (J Med Chem, 2010)", "data": [{"test_system": "Vero", "experiment": "Cytotoxicity against african green monkey Vero cells after 72 hrs by tetrazolium dye assay", "assay_type": "cell-based", "settings": "Chlorocebus sabaeus", "units": {"IC50": "µM"}, "values": [{"molecule": "O=[N+]([O-])c1cn2c(n1)OC[C@@H](OCc1cc(-c3ccc(C(F)(F)F)cc3)no1)C2", "IC50": "> 128"}, {"molecule": "COc1ccc(-c2cc(CO[C@@H]3COc4nc([N+](=O)[O-])cn4C3)on2)cc1F", "IC50": "> 128"}, {"molecule": "O=[N+]([O-])c1cn2c(n1)OC[C@@H](OCc1ccn(-c3ccc(F)cc3)n1)C2", "IC50": "> 128"}, {"molecule": "Cn1c(CO[C@@H]2COc3nc([N+](=O)[O-])cn3C2)cnc1-c1ccc(F)cc1", "IC50": "> 128"}, {"molecule": "N#Cc1ccc(-c2cccc(CO[C@@H]3COc4nc([N+](=O)[O-])cn4C3)c2)cc1", "IC50": "> 128"}, {"molecule": "Cn1nc(-c2ccc(C(F)(F)F)cc2)cc1CO[C@@H]1COc2nc([N+](=O)[O-])cn2C1", "IC50": "> 128"}, {"molecule": "O=[N+]([O-])c1cn2c(n1)OC[C@@H](OCc1ccc(-c3ccc(OC(F)F)cc3)s1)C2", "IC50": "> 128"}, {"molecule": "O=[N+]([O-])c1cn2c(n1)OC[C@@H](OCc1cnn(-c3ccc(F)cc3)c1)C2", "IC50": "> 128"}, {"molecule": "O=[N+]([O-])c1cn2c(n1)OC[C@@H](OCc1cnn(-c3ccc(C(F)(F)F)cc3)n1)C2", "IC50": "> 128"}, {"molecule": "O=[N+]([O-])c1cn2c(n1)OC[C@@H](OCc1csc(-c3ccc(OC(F)(F)F)cc3)n1)C2", "IC50": "> 128"}, {"molecule": "COc1ccc(-c2nc(CO[C@@H]3COc4nc([N+](=O)[O-])cn4C3)cs2)cn1", "IC50": "> 128"}, {"molecule": "Cn1nc(-c2ccc(F)cc2)cc1CO[C@@H]1COc2nc([N+](=O)[O-])cn2C1", "IC50": "> 128"}, {"molecule": "COc1ccc(-c2ccc(CO[C@@H]3COc4nc([N+](=O)[O-])cn4C3)s2)cc1F", "IC50": "> 128"}, {"molecule": "COc1ccc(-n2cc(CO[C@@H]3COc4nc([N+](=O)[O-])cn4C3)nn2)cc1F", "IC50": "> 128"}, {"molecule": "O=[N+]([O-])c1cn2c(n1)OC[C@@H](OCc1cc(-c3ccc(F)cc3)no1)C2", "IC50": "> 128"}, {"molecule": "COc1ccc(-c2nc(CO[C@@H]3COc4nc([N+](=O)[O-])cn4C3)cs2)cc1F", "IC50": "> 128"}, {"molecule": "O=[N+]([O-])c1cn2c(n1)OC[C@@H](OCc1cc(-c3ccc(OC(F)(F)F)cc3)no1)C2", "IC50": "> 128"}, {"molecule": "O=[N+]([O-])c1cn2c(n1)OC[C@@H](OCc1cnn(-c3ccc(OC(F)(F)F)cc3)n1)C2", "IC50": "> 128"}, {"molecule": "O=[N+]([O-])c1cn2c(n1)OC[C@@H](OCc1ccc(-c3ccc(C(F)(F)F)cc3)s1)C2", "IC50": "> 128"}, {"molecule": "O=[N+]([O-])c1cn2c(n1)OC[C@@H](OCc1nnn(-c3ccc(F)cc3)n1)C2", "IC50": "> 128"}, {"molecule": "COc1ccc(-c2cc(CO[C@@H]3COc4nc([N+](=O)[O-])cn4C3)on2)cn1", "IC50": "> 128"}, {"molecule": "O=[N+]([O-])c1cn2c(n1)OC[C@@H](OCc1cn(-c3ccc(C(F)(F)F)cc3)nn1)C2", "IC50": "> 128"}]}, {"test_system": "Mycobacterium tuberculosis", "experiment": "Antimycobacterial activity against Mycobacterium tuberculosis H37Rv after 16 to 24 hrs by microplate alamar blue assay", "assay_type": "functional", "settings": "not given", "units": {"MIC": "µM"}, "values": [{"molecule": "O=[N+]([O-])c1cn2c(n1)OC[C@@H](OCc1cc(-c3ccc(C(F)(F)F)cc3)no1)C2", "MIC": 0.17}, {"molecule": "COc1ccc(-c2cc(CO[C@@H]3COc4nc([N+](=O)[O-])cn4C3)on2)cc1F", "MIC": 1.1}, {"molecule": "O=[N+]([O-])c1cn2c(n1)OC[C@@H](OCc1ccn(-c3ccc(F)cc3)n1)C2", "MIC": 0.11}, {"molecule": "Cn1c(CO[C@@H]2COc3nc([N+](=O)[O-])cn3C2)cnc1-c1ccc(F)cc1", "MIC": 1.9}, {"molecule": "Cn1nc(-c2ccc(C(F)(F)F)cc2)cc1CO[C@@H]1COc2nc([N+](=O)[O-])cn2C1", "MIC": 0.06}, {"molecule": "O=[N+]([O-])c1cn2c(n1)OC[C@@H](OCc1ccc(-c3ccc(OC(F)F)cc3)s1)C2", "MIC": 0.86}, {"molecule": "O=[N+]([O-])c1cn2c(n1)OC[C@@H](OCc1cnn(-c3ccc(F)cc3)c1)C2", "MIC": 0.8}, {"molecule": "O=[N+]([O-])c1cn2c(n1)OC[C@@H](OCc1cnn(-c3ccc(C(F)(F)F)cc3)n1)C2", "MIC": 0.05}, {"molecule": "O=[N+]([O-])c1cn2c(n1)OC[C@@H](OCc1csc(-c3ccc(OC(F)(F)F)cc3)n1)C2", "MIC": 1.2}, {"molecule": "COc1ccc(-c2nc(CO[C@@H]3COc4nc([N+](=O)[O-])cn4C3)cs2)cn1", "MIC": 1.4}, {"molecule": "Cn1nc(-c2ccc(F)cc2)cc1CO[C@@H]1COc2nc([N+](=O)[O-])cn2C1", "MIC": 0.36}, {"molecule": "COc1ccc(-c2ccc(CO[C@@H]3COc4nc([N+](=O)[O-])cn4C3)s2)cc1F", "MIC": 0.06}, {"molecule": "COc1ccc(-n2cc(CO[C@@H]3COc4nc([N+](=O)[O-])cn4C3)nn2)cc1F", "MIC": 0.86}, {"molecule": "O=[N+]([O-])c1cn2c(n1)OC[C@@H](OCc1cc(-c3ccc(F)cc3)no1)C2", "MIC": 1.5}, {"molecule": "COc1ccc(-c2nc(CO[C@@H]3COc4nc([N+](=O)[O-])cn4C3)cs2)cc1F", "MIC": 0.2}, {"molecule": "O=[N+]([O-])c1cn2c(n1)OC[C@@H](OCc1cc(-c3ccc(OC(F)(F)F)cc3)no1)C2", "MIC": 0.55}, {"molecule": "O=[N+]([O-])c1cn2c(n1)OC[C@@H](OCc1cnn(-c3ccc(OC(F)(F)F)cc3)n1)C2", "MIC": 0.03}, {"molecule": "O=[N+]([O-])c1cn2c(n1)OC[C@@H](OCc1ccc(-c3ccc(C(F)(F)F)cc3)s1)C2", "MIC": 0.16}, {"molecule": "O=[N+]([O-])c1cn2c(n1)OC[C@@H](OCc1nnn(-c3ccc(F)cc3)n1)C2", "MIC": 0.29}, {"molecule": "COc1ccc(-c2cc(CO[C@@H]3COc4nc([N+](=O)[O-])cn4C3)on2)cn1", "MIC": 2}, {"molecule": "O=[N+]([O-])c1cn2c(n1)OC[C@@H](OCc1cn(-c3ccc(C(F)(F)F)cc3)nn1)C2", "MIC": 0.11}]}, {"test_system": "Mycobacterium tuberculosis", "experiment": "Antimycobacterial activity against Mycobacterium tuberculosis H37Rv expressing pFCA-luxAB after 10 days by luminescence-based low-oxygen recovery assay", "assay_type": "functional", "settings": "240 h", "units": {"MIC": "µM"}, "values": [{"molecule": "O=[N+]([O-])c1cn2c(n1)OC[C@@H](OCc1cc(-c3ccc(C(F)(F)F)cc3)no1)C2", "MIC": 2.6}, {"molecule": "COc1ccc(-c2cc(CO[C@@H]3COc4nc([N+](=O)[O-])cn4C3)on2)cc1F", "MIC": 2}, {"molecule": "O=[N+]([O-])c1cn2c(n1)OC[C@@H](OCc1ccn(-c3ccc(F)cc3)n1)C2", "MIC": 7.2}, {"molecule": "Cn1c(CO[C@@H]2COc3nc([N+](=O)[O-])cn3C2)cnc1-c1ccc(F)cc1", "MIC": 31}, {"molecule": "N#Cc1ccc(-c2cccc(CO[C@@H]3COc4nc([N+](=O)[O-])cn4C3)c2)cc1", "MIC": 4.8}, {"molecule": "Cn1nc(-c2ccc(C(F)(F)F)cc2)cc1CO[C@@H]1COc2nc([N+](=O)[O-])cn2C1", "MIC": 4.1}, {"molecule": "O=[N+]([O-])c1cn2c(n1)OC[C@@H](OCc1ccc(-c3ccc(OC(F)F)cc3)s1)C2", "MIC": 0.58}, {"molecule": "O=[N+]([O-])c1cn2c(n1)OC[C@@H](OCc1cnn(-c3ccc(F)cc3)c1)C2", "MIC": 3.9}, {"molecule": "O=[N+]([O-])c1cn2c(n1)OC[C@@H](OCc1cnn(-c3ccc(C(F)(F)F)cc3)n1)C2", "MIC": 2.1}, {"molecule": "O=[N+]([O-])c1cn2c(n1)OC[C@@H](OCc1csc(-c3ccc(OC(F)(F)F)cc3)n1)C2", "MIC": 1.5}, {"molecule": "COc1ccc(-c2nc(CO[C@@H]3COc4nc([N+](=O)[O-])cn4C3)cs2)cn1", "MIC": 4.5}, {"molecule": "Cn1nc(-c2ccc(F)cc2)cc1CO[C@@H]1COc2nc([N+](=O)[O-])cn2C1", "MIC": 4}, {"molecule": "COc1ccc(-c2ccc(CO[C@@H]3COc4nc([N+](=O)[O-])cn4C3)s2)cc1F", "MIC": 1}, {"molecule": "COc1ccc(-n2cc(CO[C@@H]3COc4nc([N+](=O)[O-])cn4C3)nn2)cc1F", "MIC": 8.7}, {"molecule": "O=[N+]([O-])c1cn2c(n1)OC[C@@H](OCc1cc(-c3ccc(F)cc3)no1)C2", "MIC": 1.9}, {"molecule": "COc1ccc(-c2nc(CO[C@@H]3COc4nc([N+](=O)[O-])cn4C3)cs2)cc1F", "MIC": 1.7}, {"molecule": "O=[N+]([O-])c1cn2c(n1)OC[C@@H](OCc1cc(-c3ccc(OC(F)(F)F)cc3)no1)C2", "MIC": 1.2}, {"molecule": "O=[N+]([O-])c1cn2c(n1)OC[C@@H](OCc1cnn(-c3ccc(OC(F)(F)F)cc3)n1)C2", "MIC": 1.6}, {"molecule": "O=[N+]([O-])c1cn2c(n1)OC[C@@H](OCc1ccc(-c3ccc(C(F)(F)F)cc3)s1)C2", "MIC": 1}, {"molecule": "O=[N+]([O-])c1cn2c(n1)OC[C@@H](OCc1nnn(-c3ccc(F)cc3)n1)C2", "MIC": 3.4}, {"molecule": "COc1ccc(-c2cc(CO[C@@H]3COc4nc([N+](=O)[O-])cn4C3)on2)cn1", "MIC": 4.1}, {"molecule": "O=[N+]([O-])c1cn2c(n1)OC[C@@H](OCc1cn(-c3ccc(C(F)(F)F)cc3)nn1)C2", "MIC": 3.4}]}, {"test_system": "not listed separately", "experiment": "Solubility in water at pH 7 at 20 degC", "assay_type": "physicochemical", "settings": "not given", "units": {"solubility": "µg/mL"}, "values": [{"molecule": "O=[N+]([O-])c1cn2c(n1)OC[C@@H](OCc1cc(-c3ccc(C(F)(F)F)cc3)no1)C2", "solubility": 0.5}, {"molecule": "O=[N+]([O-])c1cn2c(n1)OC[C@@H](OCc1cnn(-c3ccc(C(F)(F)F)cc3)n1)C2", "solubility": 1}, {"molecule": "O=[N+]([O-])c1cn2c(n1)OC[C@@H](OCc1ccc(-c3ccc(C(F)(F)F)cc3)s1)C2", "solubility": 0.7}, {"molecule": "O=[N+]([O-])c1cn2c(n1)OC[C@@H](OCc1cn(-c3ccc(C(F)(F)F)cc3)nn1)C2", "solubility": 4.6}]}]}
